Experiment: Comparison of stability: sealed storage at 40° C., HPLC purity
Type: physicochemical
Details: for degradation in stability test: sealed storage for 4 days at 40° C.
Excerpt: The crystalline form A of Bimatoprost of the invention has specific stability, which is favorable for storage. The inventors compare the stability of the crystalline form A prepared by the method of the invention with that of the crystalline form B prepared in the prior art by stability test. […] Degradation products of the crystalline form B include a compound II and a compound III. […] As used herein, the term “HPLC purity” refers to the percentage of peak area of the compound as shown in formula I that is subject to HPLC detection and then area normalization according to the obtained chromatogram in the total peak area. The HPLC detection method is as follows: Chromatographic column: 4.6×150 mm 3 μm C18 column; column temperature: 35° C.; mobile phase: A: acetonitrile: water (20 mM potassium phosphate buffer solution; pH=2.8) 20:80; B: acetonitrile: water (20 mM potassium phosphate buffer solution; pH=2.8) 40:60; gradient elution conditions: A:B=100: 0, 1 min; A:B=100:0-40:60, 16 min; A:B=40:60, 4 min; A:B=40:60-100:0, 1 min. Flow rate: 1 ml/min; main peak retention time: around […]; sample volume 15 μl; column temperature: 35° C.±5° C.; detection wavelength: 210 nm; running time: 40 min. A sample of the crystal A of Bimatoprost prepared by Example 4 was taken (0.8 g; HPLC purity: 99.7%) and divided into 4 parts of equal amount; and the 4 parts were respectively hermetically placed under 40° C. for 1 day, 2 days, 3 days and 4 days and then sampled for analysis, wherein HPLC purity was 99.7%, 99.7%, 99.7% and 99.7% respectively. A sample of the crystal B of Bimatoprost prepared by Example 2 was taken (0.8 g; HPLC purity: 99.6%) and divided into 4 parts of equal amount; and the 4 parts were respectively hermetically placed under 40° C. for 1 day, 2 days, 3 days and 4 days and then sampled for analysis, wherein HPLC purity was 99.4%, 99.2%, 99.1% and 98.7% respectively.

SMILES | HPLC purity (hermetically placed under 40° C. for 1 day, listed as crystal A of Bimatoprost) | HPLC purity (hermetically placed under 40° C. for 2 days, listed as crystal A of Bimatoprost) | HPLC purity (hermetically placed under 40° C. for 3 days, listed as crystal A of Bimatoprost) | HPLC purity (hermetically placed under 40° C. for 4 days, listed as crystal A of Bimatoprost) | HPLC purity (sample before storage (initial), listed as crystal A of Bimatoprost) | degradation in stability test | HPLC purity (hermetically placed under 40° C. for 1 day, listed as crystal B of Bimatoprost) | HPLC purity (hermetically placed under 40° C. for 2 days, listed as crystal B of Bimatoprost) | HPLC purity (hermetically placed under 40° C. for 3 days, listed as crystal B of Bimatoprost) | HPLC purity (hermetically placed under 40° C. for 4 days, listed as crystal B of Bimatoprost) | HPLC purity (sample before storage (initial), listed as crystal B of Bimatoprost)
CCNC(=O)CCC/C=C\C[C@@H]1[C@@H](/C=C/[C@@H](O)CCc2ccccc2)[C@H](O)C[C@@H]1O [crystalline form A, (Z)-7-[(1R,2R,3R,5S)-3,5-dihydroxyl-2-[(E,3S)-3-hydroxyl-5-phenylpent-1-enyl]cyclopentyl]-N-ethylhept-5-eneamide] | 99.7% | 99.7% | 99.7% | 99.7% | 99.7% | does not degrade | – | – | – | – | –
CCNC(=O)CCC/C=C\C[C@@H]1[C@@H](/C=C/[C@@H](O)CCc2ccccc2)[C@H](O)C[C@@H]1O [crystalline form B, (Z)-7-[(1R,2R,3R,5S)-3,5-dihydroxyl-2-[(E,3S)-3-hydroxyl-5-phenylpent-1-enyl]cyclopentyl]-N-ethylhept-5-eneamide] | – | – | – | – | – | obviously degrades | 99.4% | 99.2% | 99.1% | 98.7% | 99.6%

— patent US8664275B2, “Crystalline form of Bimatoprost, preparation method and use thereof” (Shanghai Techwell Biopharmaceutical Co., Ltd., priority 2009, dated 2014)
